Read-outs that look alike come from different tables or passages of the source.
Key:
[1] = test system: USTC-0 PDX; assay: TNBC patient-derived xenograft; format: in vivo, NOD/SCID mice; settings: for survival of PDX-bearing mice / Median survival: USTC-0; for survival of PDX-bearing mice: single agents vs vehicle, combinations vs OSI-930 or Crizotinib alone; for Median survival: vehicle 25.5
Method: (§1) The effect of drug treatments on two patient-derived xenograft (PDX) models of TNBC, USTC-0 and USTC-1 were next examined. The use of the USTC-1 PDX was previously reported.
(§2) In vivo bioluminescent imaging was performed to determine the incidence and metastatic burden of luciferase-labeled 4T1 cells. Mice were injected i.p. with 10 mg/ml of D-luciferin (Gold Biotechnology, MO, USA) and imaged using a PerkinElmer IVIS Spectrum system. PDX were generated as previously described by transplanting fresh fragments orthotopically into 8-week-old female nonobese diabetic (NOD)/severe combined immunodeficient (SCID) mice (Beijing Vital River Laboratory Animal Technology Co., Beijing, China) (P1, passage 1)[40]. The P1 xenografts were then fragmented, digested into single-cell suspension and implanted into mammary fat pad (100 μL PBS containing growth factor reduced 50% Matrigel) of NOD/SCID mice. Once orthotopic xenografts reached an approximate size of 100 mm^3, the mice were randomly divided into three groups (n = 8) for single drug studies and six groups (n = 6) for combination studies and Kaplan-Meier (KM) analyses. […] Animal body weight and xenograft size were measured daily using an electronic balance and a digital caliper, respectively. Xenograft volume (mm^3) was calculated by using the formula: 0.52 × length × [width]^2. Complete response (CR) was achieved if the average xenograft volume for the treatment group was unable to be determined for two or more consecutive measurements. Partial response (PR) was achieved if the average xenograft volume reduced to <50 mm^3 for two or more consecutive measurements. After 3-week drug treatment, all mice were sacrificed by CO2 inhalation. Tumor and vital organs were weighed and isolated for further analysis. IHC analysis of xenograft histology sections and quantitative polymerase chain reaction (qPCR) were performed as previously described. […] For PDX, xenograft growth was monitored daily by measurement of the xenograft volume until mice humane endpoint ( ~ 1000 mm^3).

[2] = test system: USTC-1 PDX; assay: TNBC patient-derived xenograft; format: in vivo, NOD/SCID mice; settings: for Median survival: USTC-1, vehicle 22.5
Method: as §1, §2

[3] = test system: BT549 cells; assay: Foci formation (crystal violet); settings: BT549, 5 μM each
[4] = test system: MDA-MB-231 cells
[5] = test system: 4T1-luciferase homografts; assay: Orthotopic syngeneic homograft, combination study; format: in vivo; settings: BALB/c mice, day 16; NCK 20 mg/kg, OSI 50 mg/kg, CRI 50 mg/kg
Method: In vivo bioluminescent imaging was performed to determine the incidence and metastatic burden of luciferase-labeled 4T1 cells. Mice were injected i.p. with 10 mg/ml of D-luciferin (Gold Biotechnology, MO, USA) and imaged using a PerkinElmer IVIS Spectrum system. PDX were generated as previously described by transplanting fresh fragments orthotopically into 8-week-old female nonobese diabetic (NOD)/severe combined immunodeficient (SCID) mice (Beijing Vital River Laboratory Animal Technology Co., Beijing, China) (P1, passage 1)[40]. The P1 xenografts were then fragmented, digested into single-cell suspension and implanted into mammary fat pad (100 μL PBS containing growth factor reduced 50% Matrigel) of NOD/SCID mice. Once orthotopic xenografts reached an approximate size of 100 mm^3, the mice were randomly divided into three groups (n = 8) for single drug studies and six groups (n = 6) for combination studies and Kaplan-Meier (KM) analyses. […] Animal body weight and xenograft size were measured daily using an electronic balance and a digital caliper, respectively. Xenograft volume (mm^3) was calculated by using the formula: 0.52 × length × [width]^2. Complete response (CR) was achieved if the average xenograft volume for the treatment group was unable to be determined for two or more consecutive measurements. Partial response (PR) was achieved if the average xenograft volume reduced to <50 mm^3 for two or more consecutive measurements. After 3-week drug treatment, all mice were sacrificed by CO2 inhalation. Tumor and vital organs were weighed and isolated for further analysis. IHC analysis of xenograft histology sections and quantitative polymerase chain reaction (qPCR) were performed as previously described. […]
model was measured every day and calculated by using the formula: 0.52 × length × [width]2.
The animal weight of each treatment group is indicated. […]
treatment group after sacrifice on the 15th day of treatment. (C) Bioluminescence of homografts from mice orthotopically implanted with 4T1-luciferase cells. (D) Resected homografts from each treatment group.
(F) Histological analyses and IRS scoring of pBAD at Ser99, BAD, MKI67, and TUNEL staining in homografts. Scale bar, 20 µm. […]
kidney weights (%, organ body index) and colon length of BALB/c mice administrated with […]
represent means ± SD ( n=6).*P < 0.05, **P < 0.01, and ***P < 0.001.

[6] = test system: MAPK and PI3K/AKT pathways; assay: Western blot of PI3K/AKT and MAPK pathway proteins; format: cell-based, human
Method: Next, western blot analyses were performed to determine potential alteration in expression or activity of the target proteins along the MAPK and PI3K/AKT pathways. […] . […] CI analysis method.

[7] = test system: MDA-MB-231 cells; assay: Foci formation (crystal violet); settings: MDA-MB-231, 5 μM each
[8] = Balb/c-nude mice, day 22, NCK 20 mg/kg, OSI 50 mg/kg, CRI 50 mg/kg

| SMILES | PDX xenograft volume ([1]; USTC-0, 21 days treatment) | survival of PDX-bearing mice [1] | Median survival [1] [days] | PDX xenograft volume ([2]; USTC-1, 21 days treatment) | Median survival [2] [days] | 2D foci formation [3] | micro-metastatic nodules in lung (H&E) vs vehicle ([4]; MDA-MB-231 metastasis model) | Colon Length [5] [cm] | Relative Kidney Weight [5] [%] | phosphorylated and total proteins of MAPK and PI3K/AKT pathways ([6]; BT549, 1 μM) | phosphorylated and total proteins of MAPK and PI3K/AKT pathways ([6]; MDA-MB-231, 1 μM) | 2D foci formation [7] | further results |
| --- | --- | --- | --- | --- | --- | --- | --- | --- | --- | --- | --- | --- | --- |
| Oc1ccccc1C(c1cccnc1)N1CCN(c2cccc(Cl)c2Cl)CC1 (stereo not drawn) [NCK, 2-((4-(2,3-dichlorophenyl)piperazin-1-yl)(pyridin-3-yl)methyl) phenol] | significantly reduced the xenograft volume | markedly extended the survival | 42.0 | significantly reduced the xenograft volume | 34.5 | significantly attenuated the capacity for foci formation | significantly reduced lung colonization | 9.02±1.54 | 1.40±0.16 | did not affect | did not affect | significantly attenuated the capacity for foci formation | reduction in xenograft burden vs vehicle ([1]; USTC-0, 21 days treatment): 66.0%; reduction in xenograft burden vs vehicle ([2]; USTC-1, 21 days treatment): 45.6%; Relative Heart Weight [4, 8]: 0.66±0.08%; Relative Kidney Weight [4, 8]: 1.72±0.18%; Relative Liver Weight [4, 8]: 6.57±0.93%; Relative Lung Weight [4, 8]: 0.82±0.05%; Relative Spleen Weight [4, 8]: 0.75±0.13%; Relative Lung Weight ([4]; MDA-MB-231 metastasis model, vehicle 0.19 ± 0.02 g): 0.17 ± 0.01 g; Relative Heart Weight [5]: 0.61±0.11%; Relative Liver Weight [5]: 4.98±0.21%; Relative Lung Weight [5]: 0.87±0.11%; Relative Spleen Weight [5]: 2.24±0.40% |
| O=C(Nc1ccc(OC(F)(F)F)cc1)c1sccc1NCc1ccnc2ccccc12 [OSI-930] | significantly reduced the xenograft volume | markedly extended the survival | 34.0 | significantly reduced the xenograft volume | 29.5 | significantly attenuated the capacity for foci formation | significantly reduced lung colonization | 9.33±1.26 | 1.34±0.02 | significantly reduced the level of p-AKT (Ser473)/AKT | significantly inhibited the PI3K/AKT pathway | significantly attenuated the capacity for foci formation |  |
